Measurements taken from patent US20110009489A1, “COSMETIC COMPOSITION COMPRISING VITAMIN U AS ACTIVE INGREDIENT FOR HEALING WOUNDS AND REDUCING WRINKLES” (CUSKIN CO., LTD., priority 2008, published 2011).

Tests used:
gastric mucosa [1] = conditions: pig, vitamin U administered; cited from earlier work
human dermal fibroblasts = conditions: vitamin U 10^−2 or 10^−3 M, DMEM with 1% FBS, scratch; vs control not treated with vitamin
Protocol: The medium used for the wound healing experiment was obtained from DMEM with 1% FBS. Such an amount of vitamin U was added that the final vitamin U concentration should be 10^−2 or 10^−3 M. In the meantime, vitamin-free medium containing 1% FBS was used for the control.
Human fibroblasts were cultured in a 6-well culture dish until the cells were grown at least 90% confluent. The cells were scratched out by using 2 mm micro tip. The fallen-off cells were washed out with PBS, followed by culture in another experimental medium. Then, it was observed by photograph how many cells migrate into the room between scratches.

[2] = tested on: human epidermal keratinocytes; conditions: vitamin U 10^−2, 10^−3, 10^−4 M, 1/10 growth factor, scratch; vs control not treated with vitamin U
Protocol: The following experiment was performed to investigate if vitamin U could increase the movement of human epidermal keratinocytes (hereinafter hEK) in vitro. The basic culture medium was obtained fromDefined Keratinocyte-SFM (Gibco, USA) with Defined Keratinocyte-SFM Growth supplement and growth factors. For the experiment, such an amount of 1/10 growth factor and vitamin U were added that the final concentrations of vitamin U should be 10^−2, 10^−3, and 10^−4 M. In the meantime, vitamin-free medium containing 1/10 growth factor was used for the control.
Human keratinocytes were cultured in a 6-well culture dish until the cells were grown at least 90% confluent. The cells were scratched out by using 2 mm micro tip. The fallen-off cells were washed out with PBS, followed by culture in another experimental medium.

gastric mucosa [3] = conditions: rabbit, vitamin U administered; cited from earlier work
collagen = conditions: mouse, in vivo
Protocol: (§1) An experiment on Inhibitory effect on collagenase of the cosmetic composition containing vitamin U of the present invention was carried out. The experiment was carried for 4 weeks with the Atrichia mice divided into two groups, each of which is composed of 10 mice. Vitamin U containing cosmetic formula, prepared in cream with 10% vitamin U, was applied onto the back skin of the experimental group mouse every day. In the meantime, vitamin U-free ordinary formula was applied on the control. 4 weeks later, back skin was picked from both groups. RNA was extracted from the skin tissues, followed by real-time PCR to investigate the transcription level of collagenase mRNA (FIG. 8).

collagenase mRNA = conditions: mouse, in vivo
Protocol: as §1

## CS.CSCCC(N)C(=O)O.Cl (racemic) [vitamin U, DL-methionine methylsulfonium chloride]
Gastric mucosa [1]
  ulcer of gastric mucosa: suppressed
Human dermal fibroblasts
  migration of fibroblasts: much more increased
[2]
  migration of keratinocytes: much more increased
Gastric mucosa [3]
  mucin secretion of gastric mucosa: increased
collagen
  collagen (Western blotting): increase of collagen
Collagenase mRNA
  collagenase mRNA transcription: significant inhibition
